For one test, the target named is Prothrombin (Bos taurus, UniProt P00735). Put plainly: thrombin inhibition, dose response, biochemical, fluorescence polarization, uHTS hits (AID 602369). The test is classed as functional. In general terms: Polarisation of emitted light reports the rotation of a fluorescent probe.
Test [1] addresses 26S proteasome non-ATPase regulatory subunit 14 (Homo sapiens, UniProt O00487). Put plainly: inhibition of proteasome subunit RPN11 – biochemical, fluorescence polarization, uHTS hits, confirmation (AID 602368). The test is classed as functional.
For test [2], the target named is 72 kDa type IV collagenase (Homo sapiens, UniProt P08253). Put plainly: Dose Response validation of uHTS RPN11 inhibitor hits using a MMP-2 Fluorescence assay. The test is classed as functional.
72 kDa type IV collagenase, sequence (P08253 whole entry): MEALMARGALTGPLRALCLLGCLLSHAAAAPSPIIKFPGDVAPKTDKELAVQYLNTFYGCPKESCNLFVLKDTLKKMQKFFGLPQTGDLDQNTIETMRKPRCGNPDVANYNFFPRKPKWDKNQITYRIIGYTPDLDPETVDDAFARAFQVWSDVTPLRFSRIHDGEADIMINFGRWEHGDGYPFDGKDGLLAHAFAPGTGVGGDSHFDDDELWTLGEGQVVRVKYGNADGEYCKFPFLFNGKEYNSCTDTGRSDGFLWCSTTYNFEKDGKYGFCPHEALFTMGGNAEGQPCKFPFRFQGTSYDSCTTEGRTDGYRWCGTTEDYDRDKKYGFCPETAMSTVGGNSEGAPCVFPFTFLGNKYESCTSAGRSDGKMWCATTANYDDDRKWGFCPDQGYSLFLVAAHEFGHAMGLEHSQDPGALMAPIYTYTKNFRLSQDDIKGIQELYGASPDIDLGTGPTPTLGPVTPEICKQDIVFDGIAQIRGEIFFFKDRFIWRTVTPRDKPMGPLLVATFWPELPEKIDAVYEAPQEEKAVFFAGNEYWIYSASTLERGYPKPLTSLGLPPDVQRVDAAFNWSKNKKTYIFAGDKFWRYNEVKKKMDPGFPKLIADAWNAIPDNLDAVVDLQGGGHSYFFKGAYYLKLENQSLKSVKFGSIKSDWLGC
For test [3], the target named is T1, Rac GTPase-activating protein 1 (Homo sapiens, UniProt Q9H0H5).
T1 sequence (Q9H0H5 whole entry): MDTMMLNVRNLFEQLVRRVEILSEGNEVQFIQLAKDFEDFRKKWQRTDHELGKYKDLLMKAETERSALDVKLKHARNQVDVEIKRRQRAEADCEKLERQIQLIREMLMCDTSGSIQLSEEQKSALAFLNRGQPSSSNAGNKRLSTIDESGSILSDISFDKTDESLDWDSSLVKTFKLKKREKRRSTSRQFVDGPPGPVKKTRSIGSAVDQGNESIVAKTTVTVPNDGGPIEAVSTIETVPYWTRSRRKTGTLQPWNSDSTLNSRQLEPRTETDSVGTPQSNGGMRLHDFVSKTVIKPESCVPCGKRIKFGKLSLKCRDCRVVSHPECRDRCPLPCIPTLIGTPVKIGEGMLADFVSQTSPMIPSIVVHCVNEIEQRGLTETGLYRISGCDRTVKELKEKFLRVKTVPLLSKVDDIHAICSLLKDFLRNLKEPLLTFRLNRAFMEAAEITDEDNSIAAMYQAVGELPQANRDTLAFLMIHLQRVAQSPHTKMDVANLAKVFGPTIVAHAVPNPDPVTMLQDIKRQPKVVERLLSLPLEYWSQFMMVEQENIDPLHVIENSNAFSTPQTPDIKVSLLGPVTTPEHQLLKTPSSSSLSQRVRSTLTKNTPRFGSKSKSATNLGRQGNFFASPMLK
Put plainly: MgcRacGAP GTPase-activating activity inhibitors, confirmation, biochemical, ADP Hunter fluorescence, primary and confirmatory (AID 624330). The test is classed as functional.

For another test, the target named is Protein Wnt-3a (Mus musculus, UniProt P27467). Put plainly: Wnt3a-driven reporter signaling inhibition, dose response, selectivity assay for Gli-SUFU antagonist project, Wnt-LIGHT cells, luminescence (AID 651570).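 Note: Wnt-LIGHT reporter cells stimulated with conditioned medium from Wnt3a-producing cells.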 The test is classed as functional. The settings on record: read-out: IC50_Mean.
Protein Wnt-3a, sequence (P27467 whole entry): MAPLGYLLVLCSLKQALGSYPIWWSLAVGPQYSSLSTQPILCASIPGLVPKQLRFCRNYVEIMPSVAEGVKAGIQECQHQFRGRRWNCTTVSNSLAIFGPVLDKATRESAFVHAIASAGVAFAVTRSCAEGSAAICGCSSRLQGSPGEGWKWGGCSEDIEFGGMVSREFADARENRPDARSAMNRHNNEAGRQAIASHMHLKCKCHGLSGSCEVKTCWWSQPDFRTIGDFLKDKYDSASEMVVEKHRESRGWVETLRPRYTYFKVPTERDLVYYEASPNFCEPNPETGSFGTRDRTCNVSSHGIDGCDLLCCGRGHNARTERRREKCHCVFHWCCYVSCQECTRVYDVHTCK
Test [4] addresses T2, Corticotropin-releasing factor receptor 2/Corticotropin-releasing factor-binding protein (Homo sapiens, UniProt P24387+Q13324).
T2 sequence (Q13324 whole entry): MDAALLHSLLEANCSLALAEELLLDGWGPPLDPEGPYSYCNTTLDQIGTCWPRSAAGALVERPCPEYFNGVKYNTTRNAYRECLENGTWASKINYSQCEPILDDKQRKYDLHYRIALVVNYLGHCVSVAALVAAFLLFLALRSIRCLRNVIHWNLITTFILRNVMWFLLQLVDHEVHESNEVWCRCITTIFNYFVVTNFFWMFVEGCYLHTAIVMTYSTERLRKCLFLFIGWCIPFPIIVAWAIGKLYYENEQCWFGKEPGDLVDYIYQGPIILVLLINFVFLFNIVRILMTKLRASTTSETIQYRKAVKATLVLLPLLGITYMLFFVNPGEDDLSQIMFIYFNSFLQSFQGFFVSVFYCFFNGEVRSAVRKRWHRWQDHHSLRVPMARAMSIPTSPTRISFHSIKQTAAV
T2 sequence (P24387 whole entry): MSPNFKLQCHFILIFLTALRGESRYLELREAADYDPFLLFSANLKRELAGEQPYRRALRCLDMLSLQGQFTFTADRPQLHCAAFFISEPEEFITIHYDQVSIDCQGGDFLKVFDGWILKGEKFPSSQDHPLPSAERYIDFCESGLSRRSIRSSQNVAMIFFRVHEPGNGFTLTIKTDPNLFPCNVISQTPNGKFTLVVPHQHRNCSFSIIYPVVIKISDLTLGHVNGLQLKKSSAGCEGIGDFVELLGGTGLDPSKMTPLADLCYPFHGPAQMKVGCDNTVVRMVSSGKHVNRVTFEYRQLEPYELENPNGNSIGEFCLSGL
Put plainly: activators of CRF receptor 2 with binding protein – uHTS hits, confirmation (AID 602473). The test is classed as functional. The settings on record: read-out: EC50_Mean.

Another test concerns HEK293. Put plainly: cells. The test is classed as functional, cell-based. Particulars: Homo sapiens.
The target in test [5] is T3, Nuclear receptor subfamily 0 group B member 1 (Homo sapiens, UniProt P51843).
T3 sequence (P51843 whole entry): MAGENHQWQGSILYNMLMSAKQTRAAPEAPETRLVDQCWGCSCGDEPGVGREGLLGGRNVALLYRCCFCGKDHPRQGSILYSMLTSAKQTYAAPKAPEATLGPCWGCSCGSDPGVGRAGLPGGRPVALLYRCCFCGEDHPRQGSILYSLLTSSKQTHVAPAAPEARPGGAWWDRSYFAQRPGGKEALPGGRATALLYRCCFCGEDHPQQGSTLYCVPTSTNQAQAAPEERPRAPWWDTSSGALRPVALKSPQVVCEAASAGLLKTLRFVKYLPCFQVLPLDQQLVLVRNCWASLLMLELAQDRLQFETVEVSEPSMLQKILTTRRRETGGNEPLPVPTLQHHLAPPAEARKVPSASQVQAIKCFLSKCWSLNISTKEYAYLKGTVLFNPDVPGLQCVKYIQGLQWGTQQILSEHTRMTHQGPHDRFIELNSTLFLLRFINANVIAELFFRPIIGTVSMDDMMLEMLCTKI
Put plainly: Luminescence-based cell-based high throughput dose response assay for inhibitors of the orphan nuclear receptor subfamily 0, group B, member 1 (DAX1; NR0B1). [Related pubchem assays (depositor defined):AID504766, AID504790]. The test is classed as functional.

For test [6], the target named is T2, Corticotropin-releasing factor receptor 2/Corticotropin-releasing factor-binding protein. Put plainly: Dose Response confirmation of uHTS hits for small molecule antagonists of the CRF-binding protein and CRF-R2 receptor complex. The test is classed as functional. Particulars: read-out: IC50_Mean.
Test [7] is described as follows: A Cell Based Secondary Assay To Explore Cytotoxicity of Compounds that Sensitize Mycobacterium Tuberculosis to Beta-Lactam Antibiotics. The test is classed as functional.
Test [8] deals with T4, Mitochondrial peptide methionine sulfoxide reductase (Bos taurus, UniProt P54149).
T4 sequence (P54149 whole entry): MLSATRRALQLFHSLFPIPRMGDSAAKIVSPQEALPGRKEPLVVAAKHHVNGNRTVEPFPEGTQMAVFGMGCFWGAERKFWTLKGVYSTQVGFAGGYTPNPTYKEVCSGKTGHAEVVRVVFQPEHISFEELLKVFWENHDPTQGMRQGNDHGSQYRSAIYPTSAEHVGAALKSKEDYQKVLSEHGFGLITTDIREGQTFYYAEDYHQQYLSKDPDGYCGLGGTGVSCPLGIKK
The test is classed as functional.

Data on eight compounds can be found in ChEMBL document CHEMBL1201862, “PubChem BioAssay data set” (2004).

Molecules are shown by their SMILES. Active and inactive are the calls of the source.

26S proteasome non-ATPase regulatory subunit 14, sequence (O00487 whole entry): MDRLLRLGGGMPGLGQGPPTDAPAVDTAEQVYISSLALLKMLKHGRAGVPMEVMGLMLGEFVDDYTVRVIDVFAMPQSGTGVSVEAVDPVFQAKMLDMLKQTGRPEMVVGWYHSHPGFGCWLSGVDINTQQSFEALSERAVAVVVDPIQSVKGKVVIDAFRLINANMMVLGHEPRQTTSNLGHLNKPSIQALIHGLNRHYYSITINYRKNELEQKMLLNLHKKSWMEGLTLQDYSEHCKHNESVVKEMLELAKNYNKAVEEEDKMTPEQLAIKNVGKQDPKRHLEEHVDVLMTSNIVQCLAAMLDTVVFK

With `COc1ccccc1NC(=O)CSc1ccc(-c2ccc(-n3cccn3)cc2)nn1`, the IC50 at Prothrombin was > 100 µM (inactive); in [1], 15.7 µM (active); in [2], > 100 µM (inactive).

For `CN1C(=O)/C(=C/C=C2/CCCN2C)N(C)C1=S`, the IC50 in test [3] is 24.2 µM (active); on Prothrombin it was 29 µM (active); in test [1] it was 8.15 µM (active); in test [2] it was > 100 µM (inactive).

Take `FC(F)Oc1ccc(-[n+]2cc(-c3ccccc3)n3c2CCCCC3)cc1`: at Protein Wnt-3a, the IC50 is 12.5 µM (active).

On to `CC1(C)CC(NCCC(c2ccccc2)c2ccco2)CCO1` (centres undefined), for which the EC50 in [4] was > 53 µM (inactive). The IC50 with HEK293 is > 67.5 µM (inactive); in test [5], > 67.5 µM (inactive); in [6] it was > 47.1 µM (inactive).

In the case of `COCCNc1nc2c(c(=O)n(C)c(=O)n2C)n1Cc1cccc(C)c1`, the IC50 at Protein Wnt-3a was 1.95 µM (active).

Turning to `CCNc1nc(CN2CCCCC2)nc2scc(-c3ccccc3)c12`, the IC50 on Protein Wnt-3a was 5.03 µM (active). The CC50 in test [7] was > 40 µM (active).

On to `O=[N+]([O-])c1ccc(N/N=C\c2cccn2-c2ccccc2)nc1`, for which the IC50 at Prothrombin is 29.5 µM (active); in [1], 23.5 µM (active); in test [2], > 100 µM (inactive).

For the compound `C/C(=N\Nc1ccc([N+](=O)[O-])cc1[N+](=O)[O-])c1cccnc1`, the IC50 in test [8] was 155 µM (inactive).

The term CC50 denotes the concentration that lowers cell viability or growth by half.
